In article PMC4456386, “Ligand Recognition of the Major Birch Pollen Allergen Bet v 1 is Isoform Dependent” (PLoS ONE, 2015):
Like-named read-outs stand apart in the source and are kept apart here. One block for each molecule: values may come before it.

What was measured:
[1] = UV/VIS absorption spectra of unbound flavonoids; type: physicochemical; conditions: pH 7.0
Procedure: All flavonoids and Bet v 1 isoforms were dissolved in 50 mM sodium phosphate, 50 mM NaCl, 10% (v/v) DMSO, pH 7.0, to a final concentration of 10 to 20 μM in 500 μl. Absorption spectra from 200–800 nm were recorded at 25°C in a 1 cm quartz cuvette (Hellma GmbH) using a 8453 UV-visible spectrophotometer (Agilent).

[2] = system: serum IgE binding to surface-coated Bet v 1a, Bet v 1d and Bet v 1m; assay: Indirect ELISA for IgE binding to Bet v 1 isoforms; design: species or system human
Source text: (§1) Fifteen sera of birch pollen-allergic subjects were collected, tested, and pooled according to the guideline of the European Medicines Agency (EMEA/CHMP/BWP/304831/2007). The serum pool is routinely used for batch-release testing of birch pollen-derived allergenic products at the Paul-Ehrlich-Institut. The same serum pool was used for both, ELISA and mediator release assays.
For IgE-ELISA experiments, Maxisorp plates (Nunc via Fisher Scientific) were coated overnight at room temperature with 50 ng/100 μl recombinant Bet v 1 isoforms a, d, or m with a 5-fold molar excess of quercetin-3-O-sophorose, rutin, quercetin, quercetin-3-O-glucoside, quercetin-3-O-galactoside, or sophorose, respectively, in phosphate-buffered saline (PBS). After blocking with PBS containing 2% bovine serum albumin (BSA) these plates and an uncoated control were incubated with a dilution series of a serum pool of birch-pollen allergic subjects for 1 h at room temperature with PBS containing 0.05% Tween 20 and 0.1% BSA. Allergen-specific human IgE was detected with a horseradish peroxidase-conjugated mouse anti-human IgE antibody (Clone B3102E8, Southern biotech via Biozol, Eching, Germany) diluted 1:1000. 3,3′,5,5′-tetramethylbenzidine (Roth, Karlsruhe) was used as substrate for horseradish peroxidase, and the absorbance at 450 nm was measured after stopping the reaction with 25% H2SO4.

[3] = target: T1, Bet v 1d (Betula pendula, UniProt P43177); assay: 1H-15N HSQC NMR titration (chemical shift perturbation) of 15N-Bet v 1d; type: binding, Betula verrucosa
T1 construct: made in house
Procedure: (§2) All NMR experiments were performed at 298 K in 50 mM sodium phosphate buffer, 50 mM NaCl, pH 7.0, 10% deuterium oxide (^2H2O) with ^15N-uniformly labelled Bet v 1 isoforms using Bruker Avance 700 MHz and Avance 800 MHz spectrometers with cryogenically cooled triple-resonance probes equipped with pulsed field-gradient capabilities. NMR data were processed using NMRPipe and visualized with NMRViewJ [89]. Three-dimensional ^15N-edited NOESY (nuclear Overhauser enhancement spectroscopy, mixing times 120 ms) experiments to assign chemical shifts were obtained with 500 μM ^15N-labeled samples of Bet v 1 isoform d or m and yielded 91% of assigned residues for Bet v 1d and 89% for Bet v 1m. The sequence-specific assignments of the amide resonances of Bet v 1a are reported elsewhere.
(§3) Interaction of Q3OS with the Bet v 1 isoforms was measured by incubating 700 μM Q3OS with 50 μM of each ^15N-labeled Bet v 1 isoform in 50 mM sodium phosphate, 50 mM NaCl buffer, pH 7.0.
(§4) For titration experiments all other flavonoids were dissolved in deuterated DMSO, while glucose and galactose were dissolved in 50 mM sodium phosphate buffer, 50 mM NaCl, pH 7.0, 10% deuterium oxide and titrated stepwise to a final excess of up to 17-fold to protein samples (ca. 100 μM). […] CSPs for ligand binding were calculated based on Eq (2): […] (2) ΔδHN and ΔδN, chemical shift differences of amide proton and nitrogen resonances, respectively, in ppm.
(§5) K d values for flavonoid binding were determined with NMRViewJ [89]. All analysable amino acid residues that were unaffected by DMSO addition and showing CSPs > 0.08 ppm were fitted to a quadratic binding curve with default settings, and an average K d app was calculated (Table 1 and S1–S3 Tables). The CSPs of all residues showing CSPs > 0.04 ppm were mapped either on models of Bet v 1d and Bet v 1m or on the Bet v 1a structure (pdb code 1BV1, [29]).

[4] = target: T2, Bet v 1m (Betula pendula, UniProt P43186); assay: 1H-15N HSQC NMR titration (chemical shift perturbation) of 15N-Bet v 1m; type: binding, Betula verrucosa; conditions: NMR, average of all analysable residues with CSPs > 0.08 ppm, ± standard deviation
T2 construct: made in house
Procedure: as §2, §3, §4, §5

[5] = system: humanized rat basophil leukemia (RBL) cells; assay: β-Hexosaminidase release (mediator release) assay; type: cell-based
Procedure: as §1
The mediator release assay was performed according to an established protocol. […] After washing, cells were stimulated with serial dilutions of Bet v 1 isoforms a, d, or m in Tyrode's buffer containing […]. For complex formation, the Bet v 1 isoforms were incubated overnight with a 5-fold molar excess of Q3OS, rutin, quercetin, Q3OGlc, Q3OGal, or sophorose, respectively, before stimulating the cells. Degranulation was quantified by photometric measurement of β-hexosaminidase activity in the culture supernatants. The percentage of β-hexosaminidase activity relative to cells lysed with Triton X-100 (Sigma-Aldrich, Steinheim, Germany) was calculated and corrected for spontaneous release (sensitized cells without allergen).

[6] = target: T3, Bet v 1a (Betula pendula, UniProt P15494); conditions: Fluorescence, read-out: Dissociation constant Kd; cited from earlier work
T3 construct: made in house

[7] = target: T3, Bet v 1a; assay: 1H-15N HSQC NMR titration (chemical shift perturbation) of 15N-Bet v 1a; type: binding, Betula verrucosa; conditions: Bet v 1a
Procedure: as §2, §3, §4, §5

[8] = target: T2, Bet v 1m; assay: 1H-15N HSQC NMR titration (chemical shift perturbation) of 15N-Bet v 1m; type: binding, Betula verrucosa; conditions: 1H-15N HSQC titration, up to 15-fold excess
[9] = 5-fold molar excess of ligand, isoforms a, d, m

T3 sequence (P15494 whole entry): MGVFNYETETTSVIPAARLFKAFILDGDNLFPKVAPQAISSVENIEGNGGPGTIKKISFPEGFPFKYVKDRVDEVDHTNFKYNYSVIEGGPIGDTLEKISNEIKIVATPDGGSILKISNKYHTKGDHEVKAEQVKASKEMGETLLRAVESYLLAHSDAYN
T1 sequence (P43177 whole entry): as the sequence (P15494 whole entry) above, with T8I, F31V, S58N, I92V, S113C, I114V, D126N counted along it
T2 sequence (P43186 whole entry): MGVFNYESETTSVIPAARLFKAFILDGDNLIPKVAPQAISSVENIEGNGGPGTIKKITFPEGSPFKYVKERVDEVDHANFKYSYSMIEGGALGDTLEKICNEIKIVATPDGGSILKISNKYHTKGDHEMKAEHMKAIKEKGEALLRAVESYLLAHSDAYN

Molecule: O=c1c(O[C@@H]2O[C@H](CO)[C@@H](O)[C@H](O)[C@H]2O[C@@H]2O[C@H](CO)[C@@H](O)[C@H](O)[C@H]2O)c(-c2ccc(O)c(O)c2)oc2cc(O)cc(O)c12 [Q3OS, quercetin-3-O-sophoroside]
Absorption maxima, Flavonoid [1]: 358 nm
influence of ligand on IgE binding of Bet v 1 isoforms [2, 9]: does not significantly influence
binding to Bet v 1d (in words) ([3]; 1H-15N HSQC titration, up to 15-fold excess): did not produce significant CSPs
Dissociation constant Kd (averaged Kd app) ([3]; NMR, Bet v 1d, average of all analysable residues with CSPs > 0.08 ppm, ± standard deviation): No binding
Dissociation constant Kd (averaged Kd app) [4]: No binding
influence of ligand on mediator release induced by Bet v 1 isoforms [5, 9]: does not significantly influence
Kd [6]: 570 nM
Kd per residue ([7]; one value per residue with Δδnorm > 0.08 ppm (residue named left of the cell), Int. Ex. = intermediate exchange): Int./Slow Ex.
Kd ([7]; NMR, average of all analysable residues with CSPs > 0.08 ppm, ± standard deviation, read-out: Dissociation constant Kd (averaged Kd app)): < 1000 nM
binding to Bet v 1m (in words) [8]: did not lead to significant CSPs

IgE-binding capacity ([2]; absence of ligands, pool serum of birch pollen-allergic subjects): only marginal
B1: Bet v 1d: recombinant hypoallergenic isoform of the major birch pollen allergen Bet v 1 (UniProt P43177) (protein, UniProt P43177 2-160, looked up)
Major pollen allergen Bet v …: GVFNYEIETTSVIPAARLFKAFILDGDNLVPKVAPQAISSVENIEGNGGPGTIKKINFPEGFPFKYVKDRVDEVDHTNFKYNYSVIEGGPVGDTLEKISNEIKIVATPDGGCVLKISNKYHTKGNHEVKAEQVKASKEMGETLLRAVESYLLAHSDAYN
shift to higher concentration for half-maximum release of β-hexosaminidase in comparison to the other isoforms ([5]; absence of ligands): approximately 10 fold
